According to patent US8921373B2, “Compounds having TRPV1 antagonistic activity and uses thereof” (Shionogi & Co., Ltd., priority 2010, dated 2014):

Assays:
human recombinant TRPV1 [1] = biological target: T1, human recombinant TRPV1 (Homo sapiens (Human), UniProt Q8NER1); assay: TRPV1 pH-Based Assay (Protocol 2, Ca2+ response in TRPV1/CHO cells, Fura-2); format: cell-based; conditions: TRPV1/CHO cells, pH 5.0-5.1; read-out: IC50 value by the pH-Based Assay
How it was run: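 CHO cells stably expressing human TRPV1, Fura-2 loaded, given compound (1% DMSO in 10× stock) before acid challenge to final pH 5.0-5.1 (3.2 or 3.3 mM H2SO4). 340/380 nm ratio recorded at 0.5 Hz; maximal ratio after agonist addition versus 16-point baseline used as response.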

[2] = Measurement of body temperature increase (rectal body temperature); format: in vivo, rat; conditions: Crl/SD rats, oral; for Body temperature increase: 1 mg/mL at 10 mL/kg; for Body temperature increase ΔTb: 1 mg/mL in 0.5% methylcellulose at 10 mL/kg, difference from vehicle group average
Protocol: Test Animals: Selection of rats (Crl/SD rats, 7 weeks, male) for this study was based on rectal body temperature measured during the morning of the day of dosing. In addition, animals selected for this study were acclimated to both the rectal measurement procedure and to being handled and dosed to minimize spontaneous, stress-induced, increases in body temperature. The study was conducted in the animal care laboratories where the room temperature and humidity were kept. The rats were free to move and food and water during the study. Each rat was numbered with color line on the tail, housed in each cage and permitted the normal range of movement. Immediately before each body temperature was measured, they transferred to a single cage at each measurement. To reduce stress which affected the body temperature, the rats were covered with towels at the measurement. The thermistor probe was then carefully inserted into the rectum of each rat and left in place until the value on the digital display had stabilized.
Assays: On the day before dosing, rectal body temperatures were measured at 9:00, 10:00, 11:00, 12:30, 13:30, 14:30 and 15:30 to familiarize the animals with the measurement procedure prior to administration of the test or control treatments. The rats were also dosed by oral gavage without vehicle at 12:30 to acclimate and familiarized the animals with the handling and dosing procedure.
On the day of dosing, only rats whose rectal body temperatures were within the range of 37.0° C. to 37.7° C. were selected for this study. Rectal body temperatures were measured at 9:00, 10:00 and 11:00. Rats whose rectal body temperatures were over 37.9° C. at 10:00, and were outside the range of 37.0° C. to 37.7° C. at 11:00 were excluded from the study. The selected rats were divided to several groups based on their rectal body temperatures at 11:00. Rectal body temperatures of the selected rats were measured again at 12:30, and any rats whose rectal body temperature was 38.0° C. or greater were excluded from the study.
Following the group assignment, test compounds or vehicle was administrated to the rats. Each test compound was dissolved in 0.5% methylcellurose and the final concentration of the compound was adjusted to 1 mg/mL. Test compound was orally administrated in a volume 10 mL/kg once. 10 mL/kg of vehicle (0.5% methylcellurose) was administered to the vehicle group. The rectal body temperatures were measured 0.5, 1 and 2 hrs after the administration. The study was conducted in the animal care laboratories where the room temperature and humidity were kept.
Body temperature increase (ΔTb) was calculated from the difference from an average of the vehicle group at each time point.

human recombinant TRPV1 [3] = biological target: T1, human recombinant TRPV1; assay: TRPV1 Capsaicin-Based Assay (Protocol 2, TRPV1/CHO cells, Fluo-4, FLIPR); format: cell-based; conditions: TRPV1/CHO cells, capsaicin 100 nM final; read-out: IC50 value by the Capsaicin-Based Assay
Protocol: For Protocol 2, a Chinese Hamster Ovary cell line (CHO) that has been engineered to constitutively express human recombinant TRPV1 was used (TRPV1/CHO cells). The TRPV1/CHO cell line was generated as described below.
One day prior to assay, TRPV1/CHO cells were seeded in 96-well clear-bottom black plates (20,000 cells/well) in growth media. On the day of the experiment, the cells were washed with 0.2 mL 1× Hank's Balanced Salt Solution (Life Technologies) containing 1.6 mM CaCl2 and 20 mM HEPES, pH 7.4 (“wash buffer”). Subsequently, the cells were loaded by incubation in 0.1 mL of wash buffer containing Fluo-4 at 3 μM final concentration. After 1 hour, the cells were washed twice with 0.2 mL wash buffer and resuspended in 0.1 mL wash buffer. The plates were then transferred to a Fluorescence Imaging Plate Reader (Molecular Devices). Fluorescence intensity was monitored for 15 seconds to establish a baseline. Subsequently, test compounds diluted in assay buffer (1× Hank's Balanced Salt Solution containing 1 mM CaCl2 and 20 mM HEPES, pH 7.4) containing 1% DMSO were added to the cell plate and fluorescence was monitored for 2 minutes. […] Human TRPV1 was then activated by the addition of 50 μL capsaicin (100 nM final concentration) and plates incubated for an additional 3 min. Data were collected over the entire time course and analyzed using Excel and the curve-fitting formula GraphPad Prism.

T1 sequence (Q8NER1 whole entry): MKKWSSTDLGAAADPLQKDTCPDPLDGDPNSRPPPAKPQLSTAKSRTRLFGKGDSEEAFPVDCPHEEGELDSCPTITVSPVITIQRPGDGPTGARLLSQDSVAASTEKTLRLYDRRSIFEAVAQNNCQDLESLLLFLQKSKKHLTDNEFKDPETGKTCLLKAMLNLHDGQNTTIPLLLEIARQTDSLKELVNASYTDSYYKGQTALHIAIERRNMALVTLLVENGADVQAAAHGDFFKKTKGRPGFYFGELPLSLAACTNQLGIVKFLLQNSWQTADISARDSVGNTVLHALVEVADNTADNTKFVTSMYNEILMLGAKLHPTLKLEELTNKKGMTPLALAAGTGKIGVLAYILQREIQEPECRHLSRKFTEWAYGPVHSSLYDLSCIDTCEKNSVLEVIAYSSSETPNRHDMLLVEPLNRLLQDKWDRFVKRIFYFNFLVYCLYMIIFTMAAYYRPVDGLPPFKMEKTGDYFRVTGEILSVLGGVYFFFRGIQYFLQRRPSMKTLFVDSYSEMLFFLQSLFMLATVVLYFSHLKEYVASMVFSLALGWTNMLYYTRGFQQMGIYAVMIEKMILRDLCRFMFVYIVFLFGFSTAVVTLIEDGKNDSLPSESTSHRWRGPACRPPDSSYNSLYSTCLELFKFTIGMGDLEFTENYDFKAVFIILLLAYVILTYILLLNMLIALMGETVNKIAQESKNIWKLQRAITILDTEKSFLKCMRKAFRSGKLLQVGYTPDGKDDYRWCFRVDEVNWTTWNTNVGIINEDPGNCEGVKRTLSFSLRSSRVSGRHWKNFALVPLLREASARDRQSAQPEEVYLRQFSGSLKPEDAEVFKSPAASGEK

Structure (SMILES) | IC50 (human recombinant TRPV1 [1]) | Body temperature increase [2] | IC50 (human recombinant TRPV1 [3]) | Body temperature increase ΔTb [2]
COc1cc(NC(=O)N2CC=C(c3ncc(C[C@@H](O)CO)cc3Cl)CC2)ccc1C(F)(F)F [AAM, (R)-4-(3-Chloro-5-(2,3-dihydroxypropyl)pyridin-2-yl)-N-(3-methoxy-4-(trifluoromethyl)phenyl)-5,6-dihydropyridine-1(2H)-carboxamide] | ≤ 50 nM | less than 0.5 °C |  | 
Cc1cc(NC(=O)N2CC=C(c3ncc(C[C@@H](O)CO)cc3Cl)CC2)ccc1C(F)(F)F [AAW, (R)-4-(3-Chloro-5-(2,3-dihydroxypropyl)pyridin-2-yl)-N-(3-methyl-4-(trifluoromethyl)phenyl)-5,6-dihydropyridine-1(2H)-carboxamide] | ≤ 50 nM | less than 0.5 °C |  | 
Cc1cc(NC(=O)N2CC=C(c3ncc(C[C@H](O)CO)cc3F)CC2)ccc1C(F)(F)F [ABY, (S)-5-(2,3-dihydroxypropyl)-3-fluoro-N-(3-methyl-4-(trifluoromethyl)phenyl)-5′,6′-dihydro-[2,4′-bipyridine]-1′(2′H)-carboxamide] | ≤ 50 nM | less than 0.5 °C | ≤ 50 nM | 
Cc1cc(NC(=O)N2CC=C(c3ncc(C[C@H](O)CO)cc3F)CC2)ccc1OC(F)(F)F [ABZ, (S)-5-(2,3-dihydroxypropyl)-3-fluoro-N-(3-methyl-4-(trifluoromethoxy)-phenyl)-5′,6′-dihydro-[2,4′-bipyridine]-1′(2′H)-carboxamide] | ≤ 50 nM |  |  | 0.03 °C
Cc1cc(NC(=O)N2CC=C(c3ncc(C[C@@H](O)CO)cc3F)CC2)ccc1C(F)(F)F [ACA, (R)-5-(2,3-dihydroxypropyl)-3-fluoro-N-(3-methyl-4-(trifluoro-methyl)phenyl)-5′,6′-dihydro-[2,4′-bipyridine]-1′(2′H)-carboxamide] | ≤ 50 nM | less than 0.5 °C |  | 
Cc1cc(NC(=O)N2CCC(F)(c3ncc(C[C@@H](O)CO)cc3F)CC2)ccc1OC(F)(F)F [ACP, (R)-4-(5-(2,3-dihydroxypropyl)-3-fluoropyridin-2-yl)-4-fluoro-N-(3-methyl-4-(trifluoromethoxy)phenyl)piperidine-1-carboxamide] | ≤ 50 nM |  | ≤ 50 nM | 0.16 °C
O=C(Nc1nc2ccc(F)cc2s1)N1CCN(c2ncc(C[C@@H](O)CO)cc2Cl)CC1 [ACV, (R)-4-(3-chloro-5-(2,3-dihydroxypropyl)pyridin-2-yl)-N-(6-fluorobenzo[d]thiazol-2-yl)piperazine-1-carboxamide] | ≤ 50 nM | less than 0.5 °C | ≤ 50 nM | 
Cc1cc2nc(NC(=O)N3CCN(c4ncc(C[C@@H](O)CO)cc4F)CC3)sc2cc1C [ACZ, (R)-4-(5-(2,3-dihydroxypropyl)-3-fluoropyridin-2-yl)-N-(5,6-dimethylbenzo[d]thiazol-2-yl)piperazine-1-carboxamide] | ≤ 50 nM |  |  | 0.24 °C
O=C(Nc1nc2ccc(F)cc2s1)N1CCN(c2ncc(C[C@H](O)CO)cc2F)CC1 [ADD, (S)-4-(5-(2,3-dihydroxypropyl)-3-fluoropyridin-2-yl)-N-(6-fluorobenzo[d]-thiazol-2-yl)piperazine-1-carboxamide] | ≤ 50 nM | less than 0.5 °C |  | 
C[C@@H]1CN(c2ncc(C[C@@H](O)CO)cc2F)CCN1C(=O)Nc1nc2ccc(Cl)cc2s1 [ADK, (R)-N-(6-chlorobenzo[d]thiazol-2-yl)-4-{5-[(R)-2,3-dihydroxypropyl]-3-fluoropyridin-2-yl}-2-methylpiperazine-1-carboxamide] | ≤ 50 nM | less than 0.5 °C |  | 
O=C(Nc1nc2ccccc2s1)N1CCN(c2ncc(C[C@@H](O)CO)cc2Cl)CC1 [ADV] | ≤ 50 nM | less than 0.5 °C |  | 
Cc1ccc2nc(NC(=O)N3CCN(c4ncc(C[C@H](O)CO)cc4Cl)CC3)sc2c1 [ADX] |  | less than 0.5 °C | ≤ 50 nM | 
C[C@H]1CN(c2ncc(C[C@H](O)CO)cc2Cl)CCN1C(=O)Nc1nc2ccc(Cl)cc2s1 [AEG] |  | less than 0.5 °C | ≤ 50 nM | 
